Test results reported in PubChem BioAssay AID256 (DTP/NCI, 2004).
Toxic doses and inconclusive results are not listed. The calls were made as follows: active = survival T/C of 150% or more; inactive = T/C below 125% in these data.

Tested on: CD2F1 mice, L1210 leukemia ip, survival T/C
Assay: NCI In Vivo Anticancer Drug Screen. Data for tumor model L1210 Leukemia (intraperitoneal) in CD2F1 (CDF1) mice
Conditions: endpoint: mean survival time, higher = longer survival
Procedure, shortened: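 Vehicle-treated tumor-bearing mice served as controls (C) for compound-treated mice (T). Reported figure is T divided by C.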

[1] = dose: 50.0 mg/kg/injection, schedule: Q01DX009 (ip), vehicle: Klucel (hydroxypropylcellulose) (HPC)
[2] = dose: 100.0 mg/kg/injection, schedule: Q01DX009 (ip), vehicle: Klucel (hydroxypropylcellulose) (HPC)
[3] = dose: 200.0 mg/kg/injection, schedule: Q01DX009 (ip), vehicle: Klucel (hydroxypropylcellulose) (HPC)
[4] = dose: 100.0 mg/kg/injection, schedule: Q04DX003 (ip), vehicle: saline with Tween-80
[5] = dose: 200.0 mg/kg/injection, schedule: Q04DX003 (ip), vehicle: saline with Tween-80
[6] = dose: 400.0 mg/kg/injection, schedule: Q04DX003 (ip), vehicle: saline with Tween-80
[7] = dose: 100.0 mg/kg/injection, schedule: Q01DX001 (ip), vehicle: saline with Tween-80
[8] = dose: 25.0 mg/kg/injection, schedule: Q01DX009 (ip), vehicle: saline with Tween-80
[9] = dose: 50.0 mg/kg/injection, schedule: Q01DX009 (ip), vehicle: saline with Tween-80

Measured: T/C

O=C(OCC(OC(=O)c1ccccc1)C(OC(=O)c1ccccc1)C(COC(=O)c1ccccc1)OC(=O)c1ccccc1)c1ccccc1 (centres undefined)
inactive: [1] 97 % of control | [2] 97 % of control | [3] 86 % of control

O=C(NNC(=O)c1ccccc1Cl)Nc1ccc(F)c(Cl)c1
inactive: dose: 100.0 mg/kg/injection, schedule: Q01DX009 (ip), vehicle: saline with Tween-80 91 % of control | dose: 200.0 mg/kg/injection, schedule: Q01DX009 (ip), vehicle: saline with Tween-80 86 % of control | dose: 400.0 mg/kg/injection, schedule: Q01DX009 (ip), vehicle: saline with Tween-80 87 % of control

O=C1C=CC(=O)c2nc3c(nc21)[nH]c1ccccc13
inactive: dose: 75.0 mg/kg/injection, schedule: Q01DX001 (ip), vehicle: saline 101 % of control | dose: 150.0 mg/kg/injection, schedule: Q01DX001 (ip), vehicle: saline 98 % of control | dose: 300.0 mg/kg/injection, schedule: Q01DX001 (ip), vehicle: saline 97 % of control

CC(=O)C1CCC2C3=CC=C4CC(OC(=O)c5ccccc5)CCC4(C)C3CCC12C (centres undefined)
inactive: [4] 101 % of control | [5] 98 % of control | [6] 102 % of control

O=C(O)c1cc(Cl)nc(Cl)c1
inactive: [7] 94 % of control | dose: 200.0 mg/kg/injection, schedule: Q01DX001 (ip), vehicle: saline with Tween-80 97 % of control | dose: 400.0 mg/kg/injection, schedule: Q01DX001 (ip), vehicle: saline with Tween-80 92 % of control

Nc1nc(NCCc2ccccc2)c2ncn(C3OC(CO)C(O)C3O)c2n1 (centres undefined)
inactive: dose: 12.5 mg/kg/injection, schedule: Q01DX005 (ip), vehicle: other 102 % of control | dose: 25.0 mg/kg/injection, schedule: Q01DX005 (ip), vehicle: other 98 % of control | dose: 50.0 mg/kg/injection, schedule: Q01DX005 (ip), vehicle: other 104 % of control | dose: 100.0 mg/kg/injection, schedule: Q01DX005 (ip), vehicle: other 108 % of control

C/C=N\N=C(N)N
inactive: dose: 30.0 mg/kg/injection, schedule: Q01DX010 (ip), vehicle: saline 96 % of control | dose: 60.0 mg/kg/injection, schedule: Q01DX009 (ip), vehicle: saline 96 % of control | dose: 120.0 mg/kg/injection, schedule: Q01DX010 (ip), vehicle: saline 91 % of control | dose: 240.0 mg/kg/injection, schedule: Q01DX009 (ip), vehicle: saline 93 % of control | dose: 480.0 mg/kg/injection, schedule: Q01DX009 (ip), vehicle: saline 93 % of control

O=C(CC(=O)c1ccccc1)c1ccccc1.O=C(CC(=O)c1ccccc1)c1ccccc1.[Cl][Sn][Cl]
inactive: [4] 90 % of control | [5] 94 % of control

[Br][Pt+2][Br].[NH-]c1ccc(F)cc1.[NH-]c1ccc(F)cc1
inactive: dose: 3.13 mg/kg/injection, schedule: Q04DX003 (ip), vehicle: distilled water + Tween-80 101 % of control | dose: 6.25 mg/kg/injection, schedule: Q04DX003 (ip), vehicle: distilled water + Tween-80 104 % of control | dose: 12.5 mg/kg/injection, schedule: Q04DX003 (ip), vehicle: distilled water + Tween-80 104 % of control | dose: 25.0 mg/kg/injection, schedule: Q04DX003 (ip), vehicle: distilled water + Tween-80 108 % of control | dose: 50.0 mg/kg/injection, schedule: Q04DX003 (ip), vehicle: distilled water + Tween-80 110 % of control | dose: 100.0 mg/kg/injection, schedule: Q04DX003 (ip), vehicle: distilled water + Tween-80 113 % of control

O=C1OC(C(Cl)(Cl)Cl)OC1C(Cl)(Cl)Cl (centres undefined)
inactive: [7] 97 % of control

CCCCCOC(=O)Nc1cccc(O)c1
inactive: [4] 95 % of control | [5] 94 % of control

C=Cc1ccncc1
inactive: dose: 12.5 mg/kg/injection, schedule: Q01DX009 (ip), vehicle: saline with Tween-80 91 % of control | [8] 95 % of control | [9] 98 % of control

CC(C(=O)O)N(C)N=O (centres undefined)
inactive: [1] 104 % of control | [2] 93 % of control | [3] 86 % of control

Nc1ncnc(N)c1NC(=O)c1ccc(OCCOc2ccccc2)c(Cl)c1
inactive: [5] 88 % of control

O=C(OC(CN1CCCCC1)CN1CCCc2ccccc21)C(O)C(O)C(O)(CO)C(=O)OC(CN1CCCCC1)CN1CCCc2ccccc21 (centres undefined)
inactive: [4] 95 % of control | [5] 91 % of control

OCC1OC(O)C(F)C(O)C1O (centres undefined)
inactive: dose: 50.0 mg/kg/injection, schedule: Q04DX003 (ip), vehicle: saline 108 % of control | dose: 100.0 mg/kg/injection, schedule: Q04DX003 (ip), vehicle: saline 104 % of control | dose: 200.0 mg/kg/injection, schedule: Q04DX003 (ip), vehicle: saline 101 % of control | dose: 400.0 mg/kg/injection, schedule: Q04DX003 (ip), vehicle: saline 101 % of control

Fc1ccc(NCCS)cc1
inactive: dose: 100.0 mg/kg/injection, schedule: Q01DX009 (ip), vehicle: saline sonified 97 % of control | dose: 200.0 mg/kg/injection, schedule: Q01DX009 (ip), vehicle: saline sonified 98 % of control | dose: 400.0 mg/kg/injection, schedule: Q01DX009 (ip), vehicle: saline sonified 103 % of control

CN(C)C1CCC(Nc2nc(Nc3cc(Cl)cc(Cl)c3)nc3ccccc23)CC1 (centres undefined)
inactive: [8] 102 % of control | dose: 25.0 mg/kg/injection, schedule: Q04DX003 (ip), vehicle: saline with Tween-80 101 % of control | [9] 96 % of control | dose: 50.0 mg/kg/injection, schedule: Q04DX003 (ip), vehicle: saline with Tween-80 103 % of control | [4] 98 % of control

CCOC(=O)N1C2CC(C3C2N3S(=O)(=O)c2ccccc2)N1C(=O)OCC (centres undefined)
inactive: [4] 104 % of control | [5] 103 % of control | [6] 90 % of control

OC(c1ccccc1)(c1ccccc1)c1ccc(CN2CCOCC2)cc1
inactive: dose: 12.5 mg/kg/injection, schedule: Q01DX009 (ip), vehicle: other 101 % of control | dose: 25.0 mg/kg/injection, schedule: Q01DX009 (ip), vehicle: other 98 % of control | dose: 50.0 mg/kg/injection, schedule: Q01DX009 (ip), vehicle: other 93 % of control | dose: 100.0 mg/kg/injection, schedule: Q01DX009 (ip), vehicle: other 90 % of control | dose: 200.0 mg/kg/injection, schedule: Q01DX009 (ip), vehicle: other 98 % of control
